# Numbers after ± are expanded uncertainties.
# Assays:
# [1] = excess molar enthalpy (molar enthalpy of mixing); xn = mol fraction of the nth substance listed; settings: 298.15 K, 101 kPa, Liquid, isothermal titration calorimeter
# [2] = 298.15 K; 101.33 kPa; Liquid; Vibrating tube method
smiles,measurement,setting,value
CCCCCC(=O)O [hexanoic acid] + C[S+](C)[O-],excess molar enthalpy,[1]; x2 = 0.042,-0.0478 ± 0.000717 kcal/mol
same,excess molar enthalpy,[1]; x2 = 0.081,-0.0963 ± 0.00143 kcal/mol
same,excess molar enthalpy,[1]; x2 = 0.117,-0.144 ± 0.00191 kcal/mol
same,excess molar enthalpy,[1]; x2 = 0.15,-0.189 ± 0.00239 kcal/mol
same,excess molar enthalpy,[1]; x2 = 0.181,-0.233 ± 0.00287 kcal/mol
same,excess molar enthalpy,[1]; x2 = 0.209,-0.275 ± 0.00359 kcal/mol
same,excess molar enthalpy,[1]; x2 = 0.241,-0.322 ± 0.00406 kcal/mol
same,excess molar enthalpy,[1]; x2 = 0.271,-0.365 ± 0.00454 kcal/mol
same,excess molar enthalpy,[1]; x2 = 0.298,-0.405 ± 0.00502 kcal/mol
same,excess molar enthalpy,[1]; x2 = 0.323,-0.441 ± 0.0055 kcal/mol
same,excess molar enthalpy,[1]; x2 = 0.346,-0.473 ± 0.00598 kcal/mol
same,excess molar enthalpy,[1]; x2 = 0.369,-0.502 ± 0.00621 kcal/mol
same,excess molar enthalpy,[1]; x2 = 0.38,-0.514 ± 0.00645 kcal/mol
same,excess molar enthalpy,[1]; x2 = 0.388,-0.523 ± 0.00645 kcal/mol
same,excess molar enthalpy,[1]; x2 = 0.397,-0.533 ± 0.00669 kcal/mol
same,excess molar enthalpy,[1]; x2 = 0.406,-0.541 ± 0.00669 kcal/mol
same,excess molar enthalpy,[1]; x2 = 0.415,-0.55 ± 0.00693 kcal/mol
same,excess molar enthalpy,[1]; x2 = 0.425,-0.557 ± 0.00693 kcal/mol
same,excess molar enthalpy,[1]; x2 = 0.436,-0.565 ± 0.00693 kcal/mol
same,excess molar enthalpy,[1]; x2 = 0.447,-0.571 ± 0.00717 kcal/mol
same,excess molar enthalpy,[1]; x2 = 0.457,-0.575 ± 0.00717 kcal/mol
same,excess molar enthalpy,[1]; x2 = 0.467,-0.579 ± 0.00717 kcal/mol
same,excess molar enthalpy,[1]; x2 = 0.477,-0.582 ± 0.00717 kcal/mol
same,excess molar enthalpy,[1]; x2 = 0.488,-0.583 ± 0.00717 kcal/mol
same,excess molar enthalpy,[1]; x2 = 0.498,-0.582 ± 0.00717 kcal/mol
same,excess molar enthalpy,[1]; x2 = 0.508,-0.58 ± 0.00717 kcal/mol
same,excess molar enthalpy,[1]; x2 = 0.519,-0.577 ± 0.00717 kcal/mol
same,excess molar enthalpy,[1]; x2 = 0.53,-0.572 ± 0.00717 kcal/mol
same,excess molar enthalpy,[1]; x2 = 0.541,-0.564 ± 0.00693 kcal/mol
same,excess molar enthalpy,[1]; x2 = 0.553,-0.556 ± 0.00693 kcal/mol
same,excess molar enthalpy,[1]; x2 = 0.563,-0.547 ± 0.00669 kcal/mol
same,excess molar enthalpy,[1]; x2 = 0.574,-0.537 ± 0.00669 kcal/mol
same,excess molar enthalpy,[1]; x2 = 0.585,-0.525 ± 0.00645 kcal/mol
same,excess molar enthalpy,[1]; x2 = 0.596,-0.512 ± 0.00645 kcal/mol
same,excess molar enthalpy,[1]; x2 = 0.608,-0.497 ± 0.00621 kcal/mol
same,excess molar enthalpy,[1]; x2 = 0.62,-0.482 ± 0.00598 kcal/mol
same,excess molar enthalpy,[1]; x2 = 0.631,-0.468 ± 0.00574 kcal/mol
same,excess molar enthalpy,[1]; x2 = 0.642,-0.452 ± 0.00574 kcal/mol
same,excess molar enthalpy,[1]; x2 = 0.653,-0.436 ± 0.0055 kcal/mol
same,excess molar enthalpy,[1]; x2 = 0.665,-0.419 ± 0.00526 kcal/mol
same,excess molar enthalpy,[1]; x2 = 0.677,-0.401 ± 0.00502 kcal/mol
same,excess molar enthalpy,[1]; x2 = 0.69,-0.382 ± 0.00478 kcal/mol
same,excess molar enthalpy,[1]; x2 = 0.701,-0.366 ± 0.00454 kcal/mol
same,excess molar enthalpy,[1]; x2 = 0.712,-0.349 ± 0.0043 kcal/mol
same,excess molar enthalpy,[1]; x2 = 0.724,-0.332 ± 0.00406 kcal/mol
same,excess molar enthalpy,[1]; x2 = 0.736,-0.314 ± 0.00406 kcal/mol
same,excess molar enthalpy,[1]; x2 = 0.748,-0.296 ± 0.00382 kcal/mol
same,excess molar enthalpy,[1]; x2 = 0.761,-0.277 ± 0.00359 kcal/mol
same,excess molar enthalpy,[1]; x2 = 0.772,-0.261 ± 0.00335 kcal/mol
same,excess molar enthalpy,[1]; x2 = 0.784,-0.244 ± 0.00311 kcal/mol
same,excess molar enthalpy,[1]; x2 = 0.796,-0.227 ± 0.00287 kcal/mol
same,excess molar enthalpy,[1]; x2 = 0.808,-0.209 ± 0.00263 kcal/mol
same,excess molar enthalpy,[1]; x2 = 0.821,-0.192 ± 0.00239 kcal/mol
same,excess molar enthalpy,[1]; x2 = 0.834,-0.174 ± 0.00215 kcal/mol
same,excess molar enthalpy,[1]; x2 = 0.846,-0.159 ± 0.00215 kcal/mol
same,excess molar enthalpy,[1]; x2 = 0.858,-0.143 ± 0.00191 kcal/mol
same,excess molar enthalpy,[1]; x2 = 0.87,-0.128 ± 0.00167 kcal/mol
same,excess molar enthalpy,[1]; x2 = 0.883,-0.112 ± 0.00143 kcal/mol
same,excess molar enthalpy,[1]; x2 = 0.896,-0.097 ± 0.00143 kcal/mol
same,excess molar enthalpy,[1]; x2 = 0.91,-0.0844 ± 0.0012 kcal/mol
same,excess molar enthalpy,[1]; x2 = 0.922,-0.0691 ± 0.000956 kcal/mol
same,excess molar enthalpy,[1]; x2 = 0.934,-0.0564 ± 0.000956 kcal/mol
same,excess molar enthalpy,[1]; x2 = 0.943,-0.0442 ± 0.000717 kcal/mol
same,excess molar enthalpy,[1]; x2 = 0.959,-0.0323 ± 0.000478 kcal/mol
same,excess molar enthalpy,[1]; x2 = 0.973,-0.0208 ± 0.000478 kcal/mol
same,excess molar enthalpy,[1]; x2 = 0.986,-0.01 ± 0.000239 kcal/mol
CCCCCCCCO [octan-1-ol],mass density,[2],821.67 ± 0.65 kg/m3
CCCCCCCC(=O)O [octanoic acid],mass density,[2],906.02 ± 0.73 kg/m3
CCCCCCCC(=O)O [octanoic acid] + CCCCCCO,excess molar enthalpy,[1]; x2 = 0.038,0.0373 ± 0.000717 kcal/mol
same,excess molar enthalpy,[1]; x2 = 0.074,0.065 ± 0.000956 kcal/mol
same,excess molar enthalpy,[1]; x2 = 0.106,0.0868 ± 0.0012 kcal/mol
same,excess molar enthalpy,[1]; x2 = 0.137,0.105 ± 0.00143 kcal/mol
same,excess molar enthalpy,[1]; x2 = 0.167,0.12 ± 0.00167 kcal/mol
same,excess molar enthalpy,[1]; x2 = 0.18,0.132 ± 0.00167 kcal/mol
same,excess molar enthalpy,[1]; x2 = 0.186,0.135 ± 0.00167 kcal/mol
same,excess molar enthalpy,[1]; x2 = 0.193,0.138 ± 0.00191 kcal/mol
same,excess molar enthalpy,[1]; x2 = 0.201,0.141 ± 0.00191 kcal/mol
same,excess molar enthalpy,[1]; x2 = 0.209,0.144 ± 0.00191 kcal/mol
same,excess molar enthalpy,[1]; x2 = 0.218,0.147 ± 0.00191 kcal/mol
same,excess molar enthalpy,[1]; x2 = 0.228,0.151 ± 0.00191 kcal/mol
same,excess molar enthalpy,[1]; x2 = 0.239,0.154 ± 0.00191 kcal/mol
same,excess molar enthalpy,[1]; x2 = 0.251,0.157 ± 0.00191 kcal/mol
same,excess molar enthalpy,[1]; x2 = 0.261,0.16 ± 0.00215 kcal/mol
same,excess molar enthalpy,[1]; x2 = 0.273,0.162 ± 0.00215 kcal/mol
same,excess molar enthalpy,[1]; x2 = 0.286,0.165 ± 0.00215 kcal/mol
same,excess molar enthalpy,[1]; x2 = 0.3,0.167 ± 0.00215 kcal/mol
same,excess molar enthalpy,[1]; x2 = 0.31,0.169 ± 0.00215 kcal/mol
same,excess molar enthalpy,[1]; x2 = 0.322,0.17 ± 0.00215 kcal/mol
same,excess molar enthalpy,[1]; x2 = 0.334,0.172 ± 0.00215 kcal/mol
same,excess molar enthalpy,[1]; x2 = 0.347,0.173 ± 0.00215 kcal/mol
same,excess molar enthalpy,[1]; x2 = 0.361,0.174 ± 0.00215 kcal/mol
same,excess molar enthalpy,[1]; x2 = 0.377,0.175 ± 0.00215 kcal/mol
same,excess molar enthalpy,[1]; x2 = 0.394,0.176 ± 0.00215 kcal/mol
same,excess molar enthalpy,[1]; x2 = 0.407,0.176 ± 0.00215 kcal/mol
same,excess molar enthalpy,[1]; x2 = 0.422,0.175 ± 0.00215 kcal/mol
same,excess molar enthalpy,[1]; x2 = 0.437,0.175 ± 0.00215 kcal/mol
same,excess molar enthalpy,[1]; x2 = 0.454,0.174 ± 0.00215 kcal/mol
same,excess molar enthalpy,[1]; x2 = 0.472,0.173 ± 0.00215 kcal/mol
same,excess molar enthalpy,[1]; x2 = 0.492,0.171 ± 0.00215 kcal/mol
same,excess molar enthalpy,[1]; x2 = 0.508,0.168 ± 0.00215 kcal/mol
same,excess molar enthalpy,[1]; x2 = 0.526,0.166 ± 0.00215 kcal/mol
same,excess molar enthalpy,[1]; x2 = 0.544,0.163 ± 0.00215 kcal/mol
same,excess molar enthalpy,[1]; x2 = 0.564,0.158 ± 0.00215 kcal/mol
same,excess molar enthalpy,[1]; x2 = 0.586,0.154 ± 0.00191 kcal/mol
same,excess molar enthalpy,[1]; x2 = 0.607,0.148 ± 0.00191 kcal/mol
same,excess molar enthalpy,[1]; x2 = 0.629,0.143 ± 0.00191 kcal/mol
same,excess molar enthalpy,[1]; x2 = 0.65,0.137 ± 0.00167 kcal/mol
same,excess molar enthalpy,[1]; x2 = 0.672,0.13 ± 0.00167 kcal/mol
same,excess molar enthalpy,[1]; x2 = 0.696,0.123 ± 0.00167 kcal/mol
same,excess molar enthalpy,[1]; x2 = 0.722,0.114 ± 0.00143 kcal/mol
same,excess molar enthalpy,[1]; x2 = 0.749,0.105 ± 0.00143 kcal/mol
same,excess molar enthalpy,[1]; x2 = 0.773,0.0966 ± 0.0012 kcal/mol
same,excess molar enthalpy,[1]; x2 = 0.798,0.0872 ± 0.0012 kcal/mol
same,excess molar enthalpy,[1]; x2 = 0.825,0.0765 ± 0.000956 kcal/mol
same,excess molar enthalpy,[1]; x2 = 0.853,0.0645 ± 0.000956 kcal/mol
same,excess molar enthalpy,[1]; x2 = 0.884,0.0528 ± 0.000717 kcal/mol
same,excess molar enthalpy,[1]; x2 = 0.91,0.0409 ± 0.000717 kcal/mol
same,excess molar enthalpy,[1]; x2 = 0.938,0.0282 ± 0.000478 kcal/mol
same,excess molar enthalpy,[1]; x2 = 0.968,0.0146 ± 0.000239 kcal/mol
